Measured values: patent publication US12612380B2, “Non-lysosomal glucosylceramidase inhibitors and uses thereof” (ALECTOS THERAPEUTICS INC., priority 2019, dated 2026)
Like-named read-outs stand apart in the source and are kept apart here.

Tests used:
GBA2 [1] = biological target: T1, GBA2 (Homo sapiens, UniProt Q9HCG7); experiment: Binding specificity (selectivity) for GBA2 over other enzymes; format: biochemical; conditions: compared to a suitable reference compound, e.g. NB-DNJ (miglustat) or AMP-DNM
T1 sequence (Q9HCG7 1-927): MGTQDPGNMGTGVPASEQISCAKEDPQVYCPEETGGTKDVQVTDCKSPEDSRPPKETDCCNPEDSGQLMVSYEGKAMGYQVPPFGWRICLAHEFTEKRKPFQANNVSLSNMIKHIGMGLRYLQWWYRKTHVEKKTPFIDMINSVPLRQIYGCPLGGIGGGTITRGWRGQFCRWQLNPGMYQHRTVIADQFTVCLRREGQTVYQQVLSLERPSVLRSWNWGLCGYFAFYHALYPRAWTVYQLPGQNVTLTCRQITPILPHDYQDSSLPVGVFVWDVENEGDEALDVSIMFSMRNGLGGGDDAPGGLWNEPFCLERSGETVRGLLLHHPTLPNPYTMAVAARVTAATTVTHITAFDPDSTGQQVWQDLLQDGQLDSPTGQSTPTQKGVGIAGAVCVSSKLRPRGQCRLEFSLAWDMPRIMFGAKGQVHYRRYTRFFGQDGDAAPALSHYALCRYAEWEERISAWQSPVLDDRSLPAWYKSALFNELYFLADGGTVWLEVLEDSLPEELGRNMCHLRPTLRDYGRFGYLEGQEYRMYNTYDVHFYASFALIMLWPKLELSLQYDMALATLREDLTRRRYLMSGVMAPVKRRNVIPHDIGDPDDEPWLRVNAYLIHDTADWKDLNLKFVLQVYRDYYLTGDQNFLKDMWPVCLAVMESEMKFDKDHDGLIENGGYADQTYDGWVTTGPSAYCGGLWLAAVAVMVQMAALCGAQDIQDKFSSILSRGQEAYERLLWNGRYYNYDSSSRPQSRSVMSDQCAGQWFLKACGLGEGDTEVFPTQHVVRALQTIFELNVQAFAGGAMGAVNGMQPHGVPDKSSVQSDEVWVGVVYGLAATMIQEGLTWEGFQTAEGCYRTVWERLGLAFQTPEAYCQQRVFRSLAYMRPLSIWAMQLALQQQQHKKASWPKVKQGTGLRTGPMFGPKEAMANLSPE
Source text: In some embodiments, one or more of the compounds according to the invention may specifically bind a GBA2. In alternative embodiments, one or more of the compounds according to the invention may specifically bind the active site of a GBA2. […] In alternative embodiments, one or more of the compounds according to the invention may specifically bind the human non-lysosomal glucosylceramidase (GBA2) over the human lysosomal glucosylceramidase (GCase) and/or the human cytosolic glucosylceramidase (GBA3). In alternative embodiments, one or more of the compounds according to the invention may specifically bind the human non-lysosomal glucosylceramidase (GBA2) over the human glucosylceramide synthase (GCS). In alternative embodiments, one or more of the compounds according to the invention may specifically bind the human non-lysosomal glucosylceramidase (GBA2) over an intestinal alpha-glucosidase, where the intestinal alpha-glucosidase may be a sucrase-isomaltase or a maltase-glucoamylase.

GBA2 [2] = biological target: T1, GBA2; experiment: Determination of IC50 values for inhibition of GBA2 in cell lysate; format: biochemical; parameters: host or cells: HEK293T (lentiviral transduction, puromycin selection); used as cellular homogenate
Outline: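 Fluorogenic 4-MU-β-glucoside (250 μM) turnover over 20 min at 37 °C, pH 5.5, measured after NaOH/glycine stop (ex 365, em 450 nm). Enzyme source: lysate (0.083 mg/mL) of lentivirally transduced GBA2-HEK293T, GCase blocked by 20 μM azaspiro-octanediol; compound preincubated 5 min; IC50 = 50% inhibition concentration.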

[3] = cellular homogenate of HEK293T cells overexpressing human GBA2, 250 μM 4-methylumbelliferone-β-D glucopyranoside, pH 5.5, 37° C., GCase inhibitor present, read-out: GBA2 IC50

SMILES: C[C@@H]1[C@@H](O)[C@H](O)[C@@H](O)CN1CC1CCC2(CCC2)CC1 [Example 24, (2R,3R,4R,5S)-2-methyl-1-(spiro[3.5]nonan-7-ylmethyl)piperidine-3,4,5-triol]
- binding specificity (IC50 or Ki of other molecule / GBA2) (GBA2 [1]): enhanced binding specificity
- IC50 (GBA2 [2]; [3]): < 100 nM

SMILES: CC(C)c1cc(F)c(CCN2C[C@H](O)[C@@H](O)[C@H](O)[C@H]2C)c(F)c1 [Example 51, (2R,3R,4R,5S)-1-(2,6-difluoro-4-isopropylphenethyl)-2-methylpiperidine-3,4,5-triol]
- binding specificity (IC50 or Ki of other molecule / GBA2) (GBA2 [1]): enhanced binding specificity
- IC50 (GBA2 [2]): < 100 nM

SMILES: CC(C)c1ccc(F)c(CCN2C[C@H](O)[C@@H](O)[C@H](O)[C@H]2C)c1F [Example 52, (2R,3R,4R,5S)-1-(2,6-difluoro-3-isopropylphenethyl)-2-methylpiperidine-3,4,5-triol]
- binding specificity (IC50 or Ki of other molecule / GBA2) (GBA2 [1]): enhanced binding specificity
- IC50 (GBA2 [2]): < 100 nM

SMILES: C[C@@H]1[C@@H](O)[C@H](O)[C@@H](O)CN1CCc1c(F)cc(C2CC2)cc1F [Example 53, (2R,3R,4R,5S)-1-(4-cyclopropyl-2,6-difluorophenethyl)-2-methylpiperidine-3,4,5-triol]
- binding specificity (IC50 or Ki of other molecule / GBA2) (GBA2 [1]): enhanced binding specificity
- IC50 (GBA2 [2]): < 100 nM

SMILES: C[C@@H]1[C@@H](O)[C@H](O)[C@@H](O)CN1CCc1c(F)cc(C2CCOCC2)cc1F [Example 54, (2R,3R,4R,5S)-1-(2,6-difluoro-4-(tetrahydro-2H-pyran-4-yl)phenethyl)-2-methylpiperidine-3,4,5-triol]
- binding specificity (IC50 or Ki of other molecule / GBA2) (GBA2 [1]): enhanced binding specificity
- IC50 (GBA2 [2]; [3]): < 100 nM

SMILES: C[C@@H]1[C@@H](O)[C@H](O)[C@@H](O)CN1CCc1c(F)cc(C(F)(F)F)cc1F [Example 55, (2R,3R,4R,5S)-1-(2,6-difluoro-4-(trifluoromethyl)phenethyl)-2-methylpiperidine-3,4,5-triol]
- binding specificity (IC50 or Ki of other molecule / GBA2) (GBA2 [1]): enhanced binding specificity
- IC50 (GBA2 [2]): 100 to 1000 nM

SMILES: C[C@@H]1[C@@H](O)[C@H](O)[C@@H](O)CN1CCc1c(F)cc(N2CCCC2)cc1F [Example 56, (2R,3R,4R,5S)-1-(2,6-difluoro-4-(pyrrolidin-1-yl)phenethyl)-2-methylpiperidine-3,4,5-triol]
- binding specificity (IC50 or Ki of other molecule / GBA2) (GBA2 [1]): enhanced binding specificity
- IC50 (GBA2 [2]; [3]): < 100 nM

SMILES: C[C@@H]1[C@@H](O)[C@H](O)[C@@H](O)CN1CCc1c(F)cc(N2CCCCC2)cc1F [Example 57, (2R,3R,4R,5S)-1-(2,6-difluoro-4-(piperidin-1-yl)phenethyl)-2-methylpiperidine-3,4,5-triol]
- binding specificity (IC50 or Ki of other molecule / GBA2) (GBA2 [1]): enhanced binding specificity
- IC50 (GBA2 [2]; [3]): < 100 nM

SMILES: C[C@@H]1[C@@H](O)[C@H](O)[C@@H](O)CN1CCc1c(F)cc(N2CCOCC2)cc1F [Example 58, (2R,3R,4R,5S)-1-(2,6-difluoro-4-morpholinophenethyl)-2-methylpiperidine-3,4,5-triol]
- binding specificity (IC50 or Ki of other molecule / GBA2) (GBA2 [1]): enhanced binding specificity
- IC50 (GBA2 [2]; [3]): < 100 nM

SMILES: CCCCOc1cc(F)c(CCN2C[C@H](O)[C@@H](O)[C@H](O)[C@H]2C)c(F)c1 [Example 59, (2R,3R,4R,5S)-1-(4-butoxy-2,6-difluorophenethyl)-2-methylpiperidine-3,4,5-triol]
- binding specificity (IC50 or Ki of other molecule / GBA2) (GBA2 [1]): enhanced binding specificity
- IC50 (GBA2 [2]): < 100 nM

SMILES: C[C@@H]1[C@@H](O)[C@H](O)[C@@H](O)CN1CCc1c(F)cc(OCC2CC2)cc1F [Example 60, (2R,3R,4R,5S)-1-(4-(cyclopropylmethoxy)-2,6-difluorophenethyl)-2-methylpiperidine-3,4,5-triol]
- binding specificity (IC50 or Ki of other molecule / GBA2) (GBA2 [1]): enhanced binding specificity
- IC50 (GBA2 [2]): < 100 nM

SMILES: C[C@@H]1[C@@H](O)[C@H](O)[C@@H](O)CN1CCc1cc2c(cc1F)OCO2 [Example 71, (2R,3R,4R,5S)-1-(2-(6-fluorobenzo[d][1,3]dioxol-5-yl)ethyl)-2-methylpiperidine-3,4,5-triol]
- binding specificity (IC50 or Ki of other molecule / GBA2) (GBA2 [1]): enhanced binding specificity
- IC50 (GBA2 [2]): < 100 nM

SMILES: C[C@@H]1[C@@H](O)[C@H](O)[C@@H](O)CN1CCc1ccc2c(c1)OCCO2 [Example 73, (2R,3R,4R,5S)-1-(2-(2,3-dihydrobenzo[b][1,4]dioxin-6-yl)ethyl)-2-methylpiperidine-3,4,5-triol]
- binding specificity (IC50 or Ki of other molecule / GBA2) (GBA2 [1]): enhanced binding specificity
- IC50 (GBA2 [2]): < 100 nM

SMILES: Cc1ccccc1N1CC[C@H](CN2C[C@H](O)[C@@H](O)[C@H](O)[C@H]2C)C1 [Example 114, (2R,3R,4R,5S)-2-methyl-1-(((R)-1-(o-tolyl)pyrrolidin-3-yl)methyl)piperidine-3,4,5-triol]
- binding specificity (IC50 or Ki of other molecule / GBA2) (GBA2 [1]): enhanced binding specificity
- IC50 (GBA2 [2]; [3]): < 100 nM

SMILES: C[C@@H]1[C@@H](O)[C@H](O)[C@@H](O)CN1C[C@H]1CCN(c2ccccc2C(F)(F)F)C1 [Example 115, (2R,3R,4R,5S)-2-methyl-1-(((R)-1-(2-(trifluoromethyl)phenyl)pyrrolidin-3-yl)methyl)piperidine-3,4,5-triol]
- binding specificity (IC50 or Ki of other molecule / GBA2) (GBA2 [1]): enhanced binding specificity
- IC50 (GBA2 [2]; [3]): < 100 nM

SMILES: C[C@@H]1[C@@H](O)[C@H](O)[C@@H](O)CN1C[C@H]1CCN(c2ccccc2F)C1 [Example 116, (2R,3R,4R,5S)-1-(((R)-1-(2-fluorophenyl)pyrrolidin-3-yl)methyl)-2-methylpiperidine-3,4,5-triol]
- binding specificity (IC50 or Ki of other molecule / GBA2) (GBA2 [1]): enhanced binding specificity
- IC50 (GBA2 [2]; [3]): < 100 nM

SMILES: C[C@@H]1[C@@H](O)[C@H](O)[C@@H](O)CN1C[C@H]1CCN(c2cccc(F)c2)C1 [Example 117, (2R,3R,4R,5S)-1-(((R)-1-(3-fluorophenyl)pyrrolidin-3-yl)methyl)-2-methylpiperidine-3,4,5-triol]
- binding specificity (IC50 or Ki of other molecule / GBA2) (GBA2 [1]): enhanced binding specificity
- IC50 (GBA2 [2]; [3]): < 100 nM

SMILES: C[C@@H]1[C@@H](O)[C@H](O)[C@@H](O)CN1C[C@H]1CCN(c2ccccc2OC(F)(F)F)C1 [Example 118, (2R,3R,4R,5S)-2-methyl-1-(((R)-1-(2-(trifluoromethoxy)phenyl)pyrrolidin-3-yl)methyl)piperidine-3,4,5-triol]
- binding specificity (IC50 or Ki of other molecule / GBA2) (GBA2 [1]): enhanced binding specificity
- IC50 (GBA2 [2]; [3]): < 100 nM

SMILES: C[C@@H]1[C@@H](O)[C@H](O)[C@@H](O)CN1C[C@H]1CCN(c2cccc(C(F)(F)F)n2)C1 [Example 119, (2R,3R,4R,5S)-2-methyl-1-(((R)-1-(6-(trifluoromethyl)pyridin-2-yl)pyrrolidin-3-yl)methyl)piperidine-3,4,5-triol]
- binding specificity (IC50 or Ki of other molecule / GBA2) (GBA2 [1]): enhanced binding specificity
- IC50 (GBA2 [2]; [3]): < 100 nM

SMILES: C[C@@H]1[C@@H](O)[C@H](O)[C@@H](O)CN1C[C@H]1CCN(c2ncccc2C(F)(F)F)C1 [Example 120, (2R,3R,4R,5S)-2-methyl-1-(((R)-1-(3-(trifluoromethyl)pyridin-2-yl)pyrrolidin-3-yl)methyl)piperidine-3,4,5-triol]
- binding specificity (IC50 or Ki of other molecule / GBA2) (GBA2 [1]): enhanced binding specificity
- IC50 (GBA2 [2]; [3]): < 100 nM

SMILES: C[C@@H]1[C@@H](O)[C@H](O)[C@@H](O)CN1C[C@H]1CCN(c2cccc3scnc23)C1 [Example 129, (2R,3R,4R,5S)-1-(((R)-1-(benzo[d]thiazol-4-yl)pyrrolidin-3-yl)methyl)-2-methylpiperidine-3,4,5-triol]
- binding specificity (IC50 or Ki of other molecule / GBA2) (GBA2 [1]): enhanced binding specificity
- IC50 (GBA2 [2]; [3]): < 100 nM

SMILES: C[C@@H]1[C@@H](O)[C@H](O)[C@@H](O)CN1C[C@@H]1CCN(c2ccccc2C(F)(F)F)C1 [Example 131, (2R,3R,4R,5S)-2-methyl-1-(((S)-1-(2-(trifluoromethyl)phenyl)pyrrolidin-3-yl)methyl)piperidine-3,4,5-triol]
- binding specificity (IC50 or Ki of other molecule / GBA2) (GBA2 [1]): enhanced binding specificity
- IC50 (GBA2 [2]; [3]): < 100 nM
